From ChEMBL document CHEMBL1909046, “DrugMatrix in vitro pharmacology data”

Tests used:
[1] = biological target: T1, Calcitonin receptor (Homo sapiens, UniProt P30988); type: cell membranes, Membrane; conditions: t47d; further: in other assays of this panel Not Active means under 50% inhibition at 10 µM
T1 sequence (P30988 whole entry): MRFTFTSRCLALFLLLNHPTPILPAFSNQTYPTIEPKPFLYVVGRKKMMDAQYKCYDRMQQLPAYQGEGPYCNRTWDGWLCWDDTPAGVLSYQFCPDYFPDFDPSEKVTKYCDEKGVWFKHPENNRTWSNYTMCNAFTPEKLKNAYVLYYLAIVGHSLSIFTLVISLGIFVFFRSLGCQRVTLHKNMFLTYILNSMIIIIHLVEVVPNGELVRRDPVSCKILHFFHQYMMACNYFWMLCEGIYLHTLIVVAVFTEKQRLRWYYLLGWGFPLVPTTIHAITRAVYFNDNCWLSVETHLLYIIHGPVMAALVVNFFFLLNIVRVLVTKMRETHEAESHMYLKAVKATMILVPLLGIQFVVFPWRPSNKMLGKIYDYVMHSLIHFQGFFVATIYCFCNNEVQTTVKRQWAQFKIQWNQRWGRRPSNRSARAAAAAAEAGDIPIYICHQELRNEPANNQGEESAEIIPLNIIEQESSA

[2] = biological target: C-C chemokine receptor type 5 (Homo sapiens, UniProt P51681); type: cell membranes, HEK293, Membrane; conditions: hek293; further: in other assays of this panel Not Active means under 50% inhibition at 10 µM
[3] = DRUGMATRIX: GABAA, Chloride Channel, TBOB radioligand binding (ligand: [3H] TBOB); type: cell membranes, Rattus norvegicus, Wistar, Cerebral cortex, Membrane; conditions: Not Active = under 50% inhibition at 10 µM
[4] = biological target: cGMP-specific 3',5'-cyclic phosphodiesterase (Homo sapiens, UniProt O76074); experiment: DRUGMATRIX: Phosphodiesterase PDE5 enzyme inhibition (substrate: [3H]cGMP + cGMP); type: tissue-based, Platelet; conditions: platelet; Not Active = under 50% inhibition at 10 µM
[5] = biological target: Mitogen-activated protein kinase 1 (Homo sapiens, UniProt P28482); experiment: DRUGMATRIX: Protein Serine/Threonine Kinase, ERK2 enzyme inhibition (substrate: Myelin Basic Protein); parameters: species or system Escherichia coli; conditions: Not Active = under 50% inhibition at 10 µM
[6] = biological target: Epidermal growth factor receptor (Homo sapiens, UniProt P00533); experiment: DRUGMATRIX: Protein Tyrosine Kinase, EGF Receptor enzyme inhibition (substrate: Poly(Glu:Tyr)); type: cell-based, Insect cells; conditions: insect cells, Not Active = under 50% inhibition at 10 µM
[7] = biological target: Tyrosine-protein kinase Lck (Homo sapiens, UniProt P06239); experiment: DRUGMATRIX: Protein Tyrosine Kinase, LCK enzyme inhibition (substrate: Poly(Glu:Tyr)); type: cell-based, Insect cells; conditions: insect cells; Not Active = under 50% inhibition at 10 µM
Chain of Tyrosine-protein kinase Lck (P06239 whole entry): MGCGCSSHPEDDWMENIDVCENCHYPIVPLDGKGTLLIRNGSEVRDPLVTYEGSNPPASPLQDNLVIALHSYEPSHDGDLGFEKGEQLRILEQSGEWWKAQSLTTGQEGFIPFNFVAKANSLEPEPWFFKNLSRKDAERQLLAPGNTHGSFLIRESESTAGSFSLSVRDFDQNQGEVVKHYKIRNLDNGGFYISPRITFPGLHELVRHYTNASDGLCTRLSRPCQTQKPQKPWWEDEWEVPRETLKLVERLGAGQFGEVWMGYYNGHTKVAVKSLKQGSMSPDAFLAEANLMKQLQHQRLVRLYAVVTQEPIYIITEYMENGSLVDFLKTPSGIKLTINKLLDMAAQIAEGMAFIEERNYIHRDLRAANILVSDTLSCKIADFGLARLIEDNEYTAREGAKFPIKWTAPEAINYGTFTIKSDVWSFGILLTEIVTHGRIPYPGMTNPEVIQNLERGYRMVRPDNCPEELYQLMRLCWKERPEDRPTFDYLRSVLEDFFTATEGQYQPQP

Chain of C-C chemokine receptor type 5 (P51681 whole entry): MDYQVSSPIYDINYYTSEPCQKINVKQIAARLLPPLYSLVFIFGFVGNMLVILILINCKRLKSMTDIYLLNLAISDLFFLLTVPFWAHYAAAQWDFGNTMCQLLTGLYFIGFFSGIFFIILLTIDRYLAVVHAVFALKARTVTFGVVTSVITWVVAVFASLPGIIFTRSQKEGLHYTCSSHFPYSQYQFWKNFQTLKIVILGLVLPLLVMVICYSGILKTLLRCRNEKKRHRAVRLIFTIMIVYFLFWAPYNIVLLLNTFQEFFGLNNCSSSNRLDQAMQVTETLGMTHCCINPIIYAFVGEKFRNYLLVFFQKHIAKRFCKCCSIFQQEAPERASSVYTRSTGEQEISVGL
Chain of Mitogen-activated protein kinase 1 (P28482 whole entry): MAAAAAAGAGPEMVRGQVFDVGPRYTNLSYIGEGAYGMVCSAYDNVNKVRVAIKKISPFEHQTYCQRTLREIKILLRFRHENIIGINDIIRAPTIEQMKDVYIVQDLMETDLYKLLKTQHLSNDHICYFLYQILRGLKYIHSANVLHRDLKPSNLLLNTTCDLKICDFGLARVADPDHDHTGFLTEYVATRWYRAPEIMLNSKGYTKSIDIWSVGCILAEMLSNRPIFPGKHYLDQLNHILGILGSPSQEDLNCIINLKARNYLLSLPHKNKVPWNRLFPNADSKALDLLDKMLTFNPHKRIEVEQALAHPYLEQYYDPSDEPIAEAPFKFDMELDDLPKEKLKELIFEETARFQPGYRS

Compound	IC50 [1]	IC50 [2]	IC50 [3]	Ki [3]	IC50 [4]	IC50 [5]	IC50 [6]	IC50 [7]	Ki [1]	Ki [2]	Ki [4]	Ki [5]	IC50 ([6]; read-out: IC50) [nM]	Ki [7]	IC50 ([5]; read-out: IC50) [nM]	Ki [6]
CC12CCC(CC1)C(C)(C)O2 [EUCALYPTOL]	Not Active	Not Active	Not Active	Not Active	Not Active	Not Active	Not Active	Not Active	–	–	–	–	–	–	–	–
Nc1nc(N)c2nc(CNc3ccc(C(=O)N[C@@H](CCC(=O)O)C(=O)O)cc3)cnc2n1 [AMINOPTERIN]	Not Active	Not Active	Not Active	Not Active	Not Active	Not Active	Not Active	Not Active	–	–	–	–	–	–	–	–
Nc1ccc(Cc2ccc(N)cc2)cc1	Not Active	Not Active	Not Active	Not Active	Not Active	Not Active	Not Active	Not Active	–	–	–	–	–	–	–	–
COc1ccccc1OCCNCC(O)COc1cccc2[nH]c3ccccc3c12 (configuration not stated) [CARVEDILOL]	Not Active	Not Active	Not Active	Not Active	Not Active	Not Active	Not Active	Not Active	–	–	–	–	–	–	–	–
CCN1CCN(c2cc3c(cc2F)c(=O)c(C(=O)O)cn3C2CC2)CC1 [ENROFLOXACIN]	Not Active	Not Active	Not Active	Not Active	Not Active	Not Active	Not Active	Not Active	–	–	–	–	–	–	–	–
CC(C)Cc1ccc([C@H](C)C(=O)O)cc1 [DEXIBUPROFEN]	Not Active	Not Active	Not Active	Not Active	Not Active	Not Active	Not Active	Not Active	–	–	–	–	–	–	–	–
O=C(O)CNCP(=O)(O)O [GLYPHOSATE]	Not Active	Not Active	Not Active	Not Active	Not Active	Not Active	Not Active	Not Active	–	–	–	–	–	–	–	–
CO[C@H]1O[C@@H]2O[C@@]3(C)CC[C@H]4[C@H](C)CC[C@@H]([C@H]1C)[C@@]24OO3	Not Active	Not Active	Not Active	Not Active	Not Active	Not Active	Not Active	Not Active	–	–	–	–	–	–	–	–
Nc1ccc(C(=O)O)c(O)c1 [AMINOSALICYLIC ACID]	Not Active	Not Active	Not Active	Not Active	Not Active	Not Active	Not Active	Not Active	–	–	–	–	–	–	–	–
Nc1nc(F)nc2c1ncn2[C@@H]1O[C@H](CO)[C@@H](O)[C@@H]1O [FLUDARABINE]	Not Active	Not Active	Not Active	Not Active	Not Active	Not Active	Not Active	Not Active	–	–	–	–	–	–	–	–
CHROMIC CHLORIDE	Not Active	Not Active	Not Active	Not Active	Not Active	Not Active	–	Not Active	Not Active	Not Active	Not Active	Not Active	2960	Not Active	–	–
O=C(O)CO [GLYCOLIC ACID]	Not Active	Not Active	Not Active	Not Active	Not Active	Not Active	Not Active	Not Active	–	–	–	–	–	–	–	–
COC(=O)C[C@](O)(CCC(C)(C)O)C(=O)O[C@@H]1C(OC)=C[C@]23CCCN2CCc2cc4c(cc2[C@H]13)OCO4 [HARRINGTONINE]	Not Active	Not Active	Not Active	Not Active	Not Active	Not Active	Not Active	Not Active	–	–	–	–	–	–	–	–
CC12CCC(CC1=O)C2(C)C (configuration not stated) [CAMPHOR]	Not Active	Not Active	Not Active	Not Active	Not Active	Not Active	Not Active	Not Active	–	–	–	–	–	–	–	–
CCN1CCN(C(=O)N[C@@H](C(=O)N[C@@H]2C(=O)N3[C@@H]2SC(C)(C)[C@@H]3C(=O)O)c2ccccc2)C(=O)C1=O [PIPERACILLIN]	Not Active	Not Active	Not Active	Not Active	Not Active	Not Active	Not Active	Not Active	–	–	–	–	–	–	–	–
C=CCO [ALLYL ALCOHOL]	Not Active	Not Active	Not Active	Not Active	Not Active	Not Active	Not Active	Not Active	–	–	–	–	–	–	–	–
O=C(O)CCc1nc(-c2ccccc2)c(-c2ccccc2)o1 [OXAPROZIN]	Not Active	Not Active	Not Active	Not Active	Not Active	Not Active	Not Active	Not Active	–	–	–	–	–	–	–	–
c1ccc2sc(SSc3nc4ccccc4s3)nc2c1 [BENZOTHIAZYL DISULFIDE]	Not Active	Not Active	Not Active	Not Active	Not Active	Not Active	Not Active	Not Active	–	–	–	–	–	–	–	–
O=C1CN(/N=C/c2ccc([N+](=O)[O-])o2)C(=O)N1 [NITROFURANTOIN]	Not Active	Not Active	Not Active	Not Active	Not Active	Not Active	Not Active	Not Active	–	–	–	–	–	–	–	–
NCC(CC(=O)O)c1ccc(Cl)cc1 (configuration not stated) [BACLOFEN]	Not Active	Not Active	Not Active	Not Active	Not Active	Not Active	Not Active	Not Active	–	–	–	–	–	–	–	–
OC[C@H]1O[C@@H]2O[C@H]3[C@H](O)[C@@H](O)[C@@H](O[C@H]4[C@H](O)[C@@H](O)[C@@H](O[C@H]5[C@H](O)[C@@H](O)[C@@H](O[C@H]6[C@H](O)[C@@H](O)[C@@H](O[C@H]7[C@H](O)[C@@H](O)[C@@H](O[C@H]8[C@H](O)[C@@H](O)[C@@H](O[C@H]1[C@H](O)[C@H]2O)O[C@@H]8CO)O[C@@H]7CO)O[C@@H]6CO)O[C@@H]5CO)O[C@@H]4CO)O[C@@H]3CO [BETADEX]	Not Active	Not Active	Not Active	Not Active	Not Active	Not Active	Not Active	Not Active	–	–	–	–	–	–	–	–
CC(C)NCC(O)COc1ccc(CC(N)=O)cc1 (configuration not stated) [ATENOLOL]	Not Active	Not Active	Not Active	Not Active	Not Active	Not Active	Not Active	Not Active	–	–	–	–	–	–	–	–
Cl.NC[C@H]1CC[C@H](C(=O)Oc2ccc(CCC(=O)O)cc2)CC1 [CETRAXATE HYDROCHLORIDE]	Not Active	Not Active	Not Active	Not Active	Not Active	Not Active	Not Active	Not Active	–	–	–	–	–	–	–	–
O=C(NCCN1CCOCC1)c1ccc(Cl)cc1 [MOCLOBEMIDE]	Not Active	Not Active	Not Active	Not Active	Not Active	Not Active	Not Active	Not Active	–	–	–	–	–	–	–	–
CARBOXYMETHYLCELLULOSE	Not Active	Not Active	Not Active	Not Active	Not Active	–	Not Active	Not Active	Not Active	Not Active	Not Active	–	–	Not Active	216	Not Active
CCN(CCO)CCCC(C)Nc1ccnc2cc(Cl)ccc12 (configuration not stated) [HYDROXYCHLOROQUINE]	Not Active	Not Active	Not Active	Not Active	Not Active	Not Active	Not Active	Not Active	–	–	–	–	–	–	–	–
CCC1(c2ccccc2)C(=O)NC(=O)NC1=O [PHENOBARBITAL]	Not Active	Not Active	Not Active	Not Active	Not Active	Not Active	Not Active	Not Active	–	–	–	–	–	–	–	–
C=CCN1CC[C@]23c4c5ccc(O)c4O[C@H]2/C(=N/N=C2\CC[C@@]4(O)[C@H]6Cc7ccc(O)c8c7[C@@]4(CCN6CC=C)[C@H]2O8)CC[C@@]3(O)[C@H]1C5 [NALOXONAZINE]	Not Active	Not Active	Not Active	Not Active	Not Active	Not Active	Not Active	Not Active	–	–	–	–	–	–	–	–
CC(C)(C#N)c1cc(Cn2cncn2)cc(C(C)(C)C#N)c1 [ANASTROZOLE]	Not Active	Not Active	Not Active	Not Active	Not Active	Not Active	Not Active	Not Active	–	–	–	–	–	–	–	–
